Target: Plasma kallikrein (Homo sapiens, UniProt P03952)
Test: Inhibitory Activity In Vitro Assay : Plasma kallikrein inhibitory activity in vitro was determined using standard published methods. Human plasma kallikrein (Protogen) was incubated at 25° C. with the fluorogenic substrate H-DPro-Phe-Arg-AFC and various concentrations of the test compound. Residual enzyme activity (initial rate of reaction) was determined by measuring the change in […] and the IC50 value for the test compound was determined.

Sequence of Plasma kallikrein (P03952 20-390 limits assumed): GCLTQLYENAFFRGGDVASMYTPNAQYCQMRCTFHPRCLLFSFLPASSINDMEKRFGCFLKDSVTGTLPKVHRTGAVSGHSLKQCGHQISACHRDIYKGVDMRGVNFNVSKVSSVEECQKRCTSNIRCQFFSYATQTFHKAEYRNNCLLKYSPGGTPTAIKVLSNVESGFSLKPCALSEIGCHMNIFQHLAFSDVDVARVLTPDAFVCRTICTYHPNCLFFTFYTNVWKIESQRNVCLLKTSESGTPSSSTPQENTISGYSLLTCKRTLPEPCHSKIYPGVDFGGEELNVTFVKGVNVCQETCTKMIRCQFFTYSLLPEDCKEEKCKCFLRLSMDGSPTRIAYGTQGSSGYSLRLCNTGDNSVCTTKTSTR
Sequence of Plasma kallikrein (P03952 391-638 limits assumed): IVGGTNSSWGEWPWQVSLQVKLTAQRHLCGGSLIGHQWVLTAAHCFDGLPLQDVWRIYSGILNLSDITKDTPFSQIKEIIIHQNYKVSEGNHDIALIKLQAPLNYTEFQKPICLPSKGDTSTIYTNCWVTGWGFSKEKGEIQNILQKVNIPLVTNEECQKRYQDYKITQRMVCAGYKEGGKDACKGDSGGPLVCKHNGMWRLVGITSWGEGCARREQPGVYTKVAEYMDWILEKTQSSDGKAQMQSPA

- IC50: 2360 nM
Compound: CCOc1cccc(CNC(=O)c2cn(Cc3ccc(Cn4cc(C)cn4)cc3)nc2C(F)(F)F)c1
